Here are results for one compound from patent US20240058450A1, “BCL-XL Inhibitory Compounds Having Low Cell Permeability and Antibody Drug Conjugates Including the Same” (AbbVie Inc., priority 2014, published 2024).

Molecules are shown by their SMILES.

This data set relates to circulating platelets. As to conditions: mouse, in vivo.

For `CC1(C)CCC(c2ccc(Cl)cc2)=C(CN2CCN(c3ccc(C(=O)NS(=O)(=O)c4ccc(N[C@H](CCN5CCOCC5)CSc5ccccc5)c(S(=O)(=O)C(F)(F)F)c4)cc3)CC2)C1` [Navitoclax], the thrombocytopenia result is “caused thrombocytopenia” and the “time of maximal thrombocytopenia following injection” value is 6 h. In addition, the “Time to lowest count” value (ip, 100 mg/kg) was 6 h. In addition, under “ip, 100 mg/kg, 6 h”, the Lowest thrombocyte count is on record as 10 1/10^3 of the platelet#/mm^3.
